Measurements as given in PMC12040169 (PLOS Biology, 2025).

Experiment: in vitro
Conditions: human, hela cells, % viability

O=C(N/N=C/c1c[nH]c2ccccc12)c1cc(-c2ccc3ccccc3c2)[nH]n1 [CBK262885]
viability at 28.5 h, 10 µM: 54.8%

CC(Oc1cccc(Cl)c1)C(=O)N/N=C/c1cccc(Oc2ccccc2)c1 (stereo not shown) [CBK262113]
viability at 28.5 h, 10 µM: 77.5%

CC(O)c1cc2n(n1)CCN(C(=O)c1csc(Cc3ccccc3)n1)C2 (stereo not shown) [CBK307437]
viability at 28.5 h, 10 µM: 98.1%

CC(C)n1c(=O)n(CC(=O)N2CCCCCC2)c2cccnc21 [CBK283527]
viability at 28.5 h, 10 µM: 92.4%

COC(=O)c1c(NC(=S)NNC(=O)c2nn(C)c(C)c2Br)sc2c1CCC(C)C2 (stereo not shown) [CBK267052]
viability at 28.5 h, 10 µM: 93.9%

CCC12CN3CC(CC)(CN(C1)C3c1ccccc1[N+](=O)[O-])C2=O (stereo not shown) [CBK264604]
viability at 28.5 h, 10 µM: 116%

CCCCn1c(SCC(=O)c2cc(C)n(CCc3ccc(OC)cc3)c2C)n[nH]c1=O [CBK295351]
viability at 28.5 h, 10 µM: 96.1%

O=C(NCCn1c(C(F)(F)F)cc(=O)c2cccc(F)c21)C1CC1 [CBK284807]
viability at 28.5 h, 10 µM: 85.5%

O=C(Nc1ccc2oc(-c3cccnc3)nc2c1)c1ccc(-c2ccccc2OC(F)(F)F)o1 [CBK263872]
viability at 28.5 h, 10 µM: 86.5%

C[C@@H]1[C@H]2Cc3ccc(O)cc3[C@]1(C)CCN2Cc1ccoc1 [CBK005262G]
viability at 28.5 h, 10 µM (bulk resorufin, single well): 103%

CC(C(=O)NC1(C#N)CCCCC1)N1CCOC(Cn2cncn2)C1 (stereo not shown) [CBK305359]
viability at 28.5 h, 10 µM: 101%

CCOc1cc(CN2CCN(C/C=C/c3ccccc3)CC2)ccc1OC [CBK261573]
viability at 28.5 h, 10 µM: 87.2%

NC(=O)CN1CCC(Oc2nccnc2OCc2cccnc2)CC1 [CBK083165]
viability at 28.5 h, 10 µM: 107%

Cc1nnc(SCc2cc(=O)nc(NC(=N)Nc3cccc(Cl)c3)[nH]2)s1 [CBK266318]
viability at 28.5 h, 10 µM: 75.5%

CN1CCN(c2ccc(/C=c3\sc4nc5ccccc5n4c3=O)cc2[N+](=O)[O-])CC1 [CBK263048]
viability at 28.5 h, 10 µM: 89.3%

O=C(CSc1nnc(-c2ccncc2)n1-c1ccccc1)Nc1ccc([N+](=O)[O-])cc1 [CBK266620]
viability at 28.5 h, 10 µM: 96.3%

O=C(O)c1ccc(NC2=NS(=O)(=O)c3ccccc32)cc1 [CBK287084]
viability at 28.5 h, 10 µM: 84.4%

COc1cc(NC(=O)COc2cccc3ccccc23)c(C(=O)O)cc1OC [CBK268253]
viability at 28.5 h, 10 µM: 76.6%

Nc1nc(=O)c2cnc3c(Cl)cccc3c2s1 [CBK291229]
viability at 28.5 h, 10 µM: 89.5%

COC(=O)c1sc(NC(=O)C2CCCO2)c(C(=O)OC)c1C (stereo not shown) [CBK262622]
viability at 28.5 h, 10 µM: 88%

CC(=O)c1c(C(C)=O)c(C)n(-c2ccc(C(=O)O)cc2)c1C [CBK287036]
viability at 28.5 h, 10 µM: 90.9%

Cc1cnc(CNS(=O)(=O)c2c(C)noc2C)cn1 [CBK062328]
viability at 28.5 h, 10 µM: 104%

CC(=O)N1CCC2(C/C=C/C[C@H]3CN(C(=O)CCC4CCCC4)CC[C@H]3NC(=O)CNC2=O)CC1 [CBK292111]
viability at 28.5 h, 10 µM: 87%

CN(CC(=O)NCc1ccccn1)S(=O)(=O)c1ccc(Br)cc1 [CBK265127]
viability at 28.5 h, 10 µM: 94.4%

O=C(NCCCCn1ccnc1)c1noc2c1CCCC2 [CBK283208]
viability at 28.5 h, 10 µM: 93.9%

O=C(c1ccccc1)c1ccccc1OCCO [CBK000728]
viability at 28.5 h, 10 µM: 116%

CCn1cnc2sc(-c3ccccc3)cc2c1=O [CBK287952]
viability at 28.5 h, 10 µM: 65.7%

CC1=NN(c2ccccc2)C(=O)/C1=C(/C)NNC(=O)c1ccccn1 [CBK261837]
viability at 28.5 h, 10 µM: 91.7%

O=C(O)c1cccc2cccc(-c3cccc4cccc(C(=O)O)c34)c12 [CBK015494]
viability at 28.5 h, 10 µM: 109%

Cc1cc(N2CCN(C(=O)CCc3ccsc3)CC2)nc(C(C)C)n1 [CBK305710]
viability at 28.5 h, 10 µM: 113%

N#CCCCN1CCC(Oc2nccnc2OCc2cc(Cl)cc(Cl)c2)CC1 [CBK153634]
viability at 28.5 h, 10 µM: 93.9%

OC(CN1CCC2(CC1)CC(O)c1cc(F)ccc1O2)c1ccc(-c2ccccc2)cc1 (stereo not shown) [CBK286331]
viability at 28.5 h, 10 µM: 102%

Cc1ccc(N(CC(=O)NN=C2CCCCCCCCCCC2)S(=O)(=O)c2ccccc2)cc1 [CBK262192]
viability at 28.5 h, 10 µM: 105%

Cc1ccc(C(=O)N2CCC(C(=O)NC(c3ccccc3)c3ccc4ccccc4n3)CC2)cc1 (stereo not shown) [CBK059663]
viability at 28.5 h, 10 µM: 87.9%

O=C1c2ccc(-n3c(=O)c4cc5c(=O)n(-c6ccc7c(c6)C(=O)N(c6ccccc6)C7=O)c(=O)c5cc4c3=O)cc2C(=O)N1c1ccccc1 [CBK262136]
viability at 28.5 h, 10 µM: 88.1%

O=C(NCCCN1CCCC1=O)c1cnc(-c2ccc(Cl)cc2)c(-c2ccncc2)c1 [CBK037545]
viability at 28.5 h, 10 µM: 74.8%

COc1ccc(NCc2cc(I)c(OCc3ccccc3)c(OC)c2)cc1 [CBK074452]
viability at 28.5 h, 10 µM: 106%

c1csc(CNCCCN2CCOCC2)c1 [CBK278305C]
viability at 28.5 h, 10 µM: 91.1%

COc1cncc(C(NC(=O)c2ccn3nnnc3c2)[C@H]2C[C@@H](O)C2)c1 (stereo partly shown) [CBK306686]
viability at 28.5 h, 10 µM: 96.2%

CC(Sc1nc2ccccc2[nH]1)C(=O)Nc1ccc(S(N)(=O)=O)cc1 (stereo not shown) [CBK266128]
viability at 28.5 h, 10 µM: 114%

CCOC(=O)c1[nH]c2c([N+](=O)[O-])cccc2c1O [CBK115315]
viability at 28.5 h, 10 µM: 88.1%

CN(C)S(=O)(=O)N(CC(=O)NCC1CCCO1)c1ccccc1 (stereo not shown) [CBK268192]
viability at 28.5 h, 10 µM: 103%

Cc1cccnc1C(NC(=O)C1CCN(C/C=C/c2ccco2)CC1)c1ccc(Cl)cc1 (stereo not shown) [CBK148201]
viability at 28.5 h, 10 µM: 90%
